# Measurements: ChEMBL document CHEMBL1153407, “12-Substituted 2,3-dimethoxy-8,9-methylenedioxybenzo[i]phenanthridines as novel topoisomerase I-targeting antitumor agents” (Bioorg Med Chem, 2009)
# Molecular target: T1, DNA topoisomerase 1 (Homo sapiens) (UniProt P11387)
# T1 sequence (whole entry): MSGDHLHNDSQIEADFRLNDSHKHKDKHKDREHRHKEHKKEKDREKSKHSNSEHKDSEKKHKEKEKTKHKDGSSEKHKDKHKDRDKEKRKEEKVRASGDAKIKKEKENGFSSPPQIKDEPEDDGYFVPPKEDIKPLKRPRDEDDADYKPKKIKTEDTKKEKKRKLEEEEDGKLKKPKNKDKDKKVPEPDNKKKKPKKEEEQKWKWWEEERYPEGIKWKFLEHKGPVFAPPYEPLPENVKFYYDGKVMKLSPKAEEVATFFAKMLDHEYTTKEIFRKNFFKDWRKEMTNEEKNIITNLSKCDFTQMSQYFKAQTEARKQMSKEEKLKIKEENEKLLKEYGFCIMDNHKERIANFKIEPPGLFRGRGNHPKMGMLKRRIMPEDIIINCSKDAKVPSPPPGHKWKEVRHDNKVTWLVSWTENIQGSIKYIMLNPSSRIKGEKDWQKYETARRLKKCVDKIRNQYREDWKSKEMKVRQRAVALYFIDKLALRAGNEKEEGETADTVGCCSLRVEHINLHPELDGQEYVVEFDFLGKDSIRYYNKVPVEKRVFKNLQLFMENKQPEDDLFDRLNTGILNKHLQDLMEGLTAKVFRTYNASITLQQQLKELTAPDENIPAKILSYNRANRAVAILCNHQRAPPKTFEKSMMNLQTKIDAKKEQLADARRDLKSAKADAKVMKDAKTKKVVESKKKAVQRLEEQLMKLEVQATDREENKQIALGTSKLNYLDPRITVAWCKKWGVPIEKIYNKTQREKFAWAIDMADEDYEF
# Experiment: Inhibition of human topoisomerase 1 expressed in sf9 cells assessed as drug level causing 10% mediated DNA cleavage relative to topotecan
# Conditions: not given
row,Compound,Activity
1,COc1cc2c(C(N)=O)cc3c4cc5c(cc4ncc3c2cc1OC)OCO5,0.8
2,COc1cc2c(CCN(C)C)cc3c4cc5c(cc4ncc3c2cc1OC)OCO5,0.5
3,CC[C@@]1(O)C(=O)OCc2c1cc1n(c2=O)Cc2cc3ccccc3nc2-1 [CAMPTOTHECIN],0.2
4,COc1cc2c(CCCN(C)C)cc3c4cc5c(cc4ncc3c2cc1OC)OCO5,10
5,COc1cc2c3cnc4cc5c(cc4c3c(=O)n(CCN(C)C)c2cc1OC)OCO5,0.6
6,CNC(=O)c1cc2c3cc4c(cc3ncc2c2cc(OC)c(OC)cc12)OCO4,1.2
7,COc1cc2c(CC[N+](=O)[O-])cc3c4cc5c(cc4ncc3c2cc1OC)OCO5,7.7
8,COc1cc2c(CCN)cc3c4cc5c(cc4ncc3c2cc1OC)OCO5,0.3
9,COc1cc2c(C(=O)NCCN(C)C)cc3c4cc5c(cc4ncc3c2cc1OC)OCO5,0.1
10,COc1cc2c(CNCCN(C)C)cc3c4cc5c(cc4ncc3c2cc1OC)OCO5,1.9
11,COc1cc2c(CCCCN(C)C)cc3c4cc5c(cc4ncc3c2cc1OC)OCO5,0.2

# Test system: not listed separately
# Experiment: Cytotoxicity against human RPMI8402 cells after 4 days by MTT method
# Type: functional, cell-based
# Conditions: RPMI 8402, 96 h
row,Compound,IC50 [nM]
1,COc1cc2c(C(N)=O)cc3c4cc5c(cc4ncc3c2cc1OC)OCO5,4000
2,COc1cc2c(CCN(C)C)cc3c4cc5c(cc4ncc3c2cc1OC)OCO5,30
3,CC[C@@]1(O)C(=O)OCc2c1cc1n(c2=O)Cc2cc3ccccc3nc2-1 [CAMPTOTHECIN],4
4,COc1cc2c(CCCN(C)C)cc3c4cc5c(cc4ncc3c2cc1OC)OCO5,180
5,COc1cc2c3cnc4cc5c(cc4c3c(=O)n(CCN(C)C)c2cc1OC)OCO5,0.7
6,CNC(=O)c1cc2c3cc4c(cc3ncc2c2cc(OC)c(OC)cc12)OCO4,40
7,COc1cc2c(CC[N+](=O)[O-])cc3c4cc5c(cc4ncc3c2cc1OC)OCO5,380
8,COc1cc2c(CCN)cc3c4cc5c(cc4ncc3c2cc1OC)OCO5,25
9,COc1cc2c(C(=O)NCCN(C)C)cc3c4cc5c(cc4ncc3c2cc1OC)OCO5,3
10,COc1cc2c(CNCCN(C)C)cc3c4cc5c(cc4ncc3c2cc1OC)OCO5,24
11,COc1cc2c(CCCCN(C)C)cc3c4cc5c(cc4ncc3c2cc1OC)OCO5,1000

# Test system: not listed separately
# Experiment: Cytotoxicity against camptothecin-resistant human CPT-K5 cells after 4 days by MTT method
# Type: functional, cell-based
# Conditions: CPT-K5, 96 h
row,Compound,IC50 [nM]
1,COc1cc2c(C(N)=O)cc3c4cc5c(cc4ncc3c2cc1OC)OCO5,> 10000
2,COc1cc2c(CCN(C)C)cc3c4cc5c(cc4ncc3c2cc1OC)OCO5,450
3,CC[C@@]1(O)C(=O)OCc2c1cc1n(c2=O)Cc2cc3ccccc3nc2-1 [CAMPTOTHECIN],> 10000
4,COc1cc2c(CCCN(C)C)cc3c4cc5c(cc4ncc3c2cc1OC)OCO5,140
5,COc1cc2c3cnc4cc5c(cc4c3c(=O)n(CCN(C)C)c2cc1OC)OCO5,210
6,CNC(=O)c1cc2c3cc4c(cc3ncc2c2cc(OC)c(OC)cc12)OCO4,> 10000
7,COc1cc2c(CC[N+](=O)[O-])cc3c4cc5c(cc4ncc3c2cc1OC)OCO5,300
8,COc1cc2c(CCN)cc3c4cc5c(cc4ncc3c2cc1OC)OCO5,250
9,COc1cc2c(C(=O)NCCN(C)C)cc3c4cc5c(cc4ncc3c2cc1OC)OCO5,1000
10,COc1cc2c(CNCCN(C)C)cc3c4cc5c(cc4ncc3c2cc1OC)OCO5,30
11,COc1cc2c(CCCCN(C)C)cc3c4cc5c(cc4ncc3c2cc1OC)OCO5,2300

# Test system: P388
# Experiment: Cytotoxicity against mouse P388 cells after 4 days by MTT method
# Type: functional, cell-based
# Conditions: P388, 96 h
row,Compound,IC50 [nM]
1,COc1cc2c(C(N)=O)cc3c4cc5c(cc4ncc3c2cc1OC)OCO5,1600
2,COc1cc2c(CCN(C)C)cc3c4cc5c(cc4ncc3c2cc1OC)OCO5,30
3,COc1cc2c(CCCN(C)C)cc3c4cc5c(cc4ncc3c2cc1OC)OCO5,38
4,CNC(=O)c1cc2c3cc4c(cc3ncc2c2cc(OC)c(OC)cc12)OCO4,30
5,COc1cc2c(CC[N+](=O)[O-])cc3c4cc5c(cc4ncc3c2cc1OC)OCO5,280
6,COc1cc2c(CCN)cc3c4cc5c(cc4ncc3c2cc1OC)OCO5,16
7,COc1cc2c(C(=O)NCCN(C)C)cc3c4cc5c(cc4ncc3c2cc1OC)OCO5,3
8,COc1cc2c(CNCCN(C)C)cc3c4cc5c(cc4ncc3c2cc1OC)OCO5,20
9,COc1cc2c(CCCCN(C)C)cc3c4cc5c(cc4ncc3c2cc1OC)OCO5,1400

# Test system: P388
# Experiment: Cytotoxicity against camptothecin-resistant mouse P388 cells after 4 days by MTT method
# Type: functional, cell-based
# Conditions: P388, 96 h
row,Compound,IC50 [nM]
1,COc1cc2c(C(N)=O)cc3c4cc5c(cc4ncc3c2cc1OC)OCO5,> 10000
2,COc1cc2c(CCN(C)C)cc3c4cc5c(cc4ncc3c2cc1OC)OCO5,300
3,CC[C@@]1(O)C(=O)OCc2c1cc1n(c2=O)Cc2cc3ccccc3nc2-1 [CAMPTOTHECIN],> 10000
4,COc1cc2c(CCCN(C)C)cc3c4cc5c(cc4ncc3c2cc1OC)OCO5,100
5,COc1cc2c3cnc4cc5c(cc4c3c(=O)n(CCN(C)C)c2cc1OC)OCO5,15
6,CNC(=O)c1cc2c3cc4c(cc3ncc2c2cc(OC)c(OC)cc12)OCO4,300
7,COc1cc2c(CC[N+](=O)[O-])cc3c4cc5c(cc4ncc3c2cc1OC)OCO5,290
8,COc1cc2c(CCN)cc3c4cc5c(cc4ncc3c2cc1OC)OCO5,300
9,COc1cc2c(C(=O)NCCN(C)C)cc3c4cc5c(cc4ncc3c2cc1OC)OCO5,320
10,COc1cc2c(CNCCN(C)C)cc3c4cc5c(cc4ncc3c2cc1OC)OCO5,24
11,COc1cc2c(CCCCN(C)C)cc3c4cc5c(cc4ncc3c2cc1OC)OCO5,2100

# Test system: not listed separately
# Experiment: Cytotoxicity against human KB3-1 cells after 4 days by MTT method
# Type: functional, cell-based
# Conditions: KB 3-1, 96 h
row,Compound,IC50 [nM]
1,COc1cc2c(C(N)=O)cc3c4cc5c(cc4ncc3c2cc1OC)OCO5,1500
2,COc1cc2c(CCN(C)C)cc3c4cc5c(cc4ncc3c2cc1OC)OCO5,25
3,COc1cc2c(CCCN(C)C)cc3c4cc5c(cc4ncc3c2cc1OC)OCO5,40
4,COc1cc2c3cnc4cc5c(cc4c3c(=O)n(CCN(C)C)c2cc1OC)OCO5,3
5,CNC(=O)c1cc2c3cc4c(cc3ncc2c2cc(OC)c(OC)cc12)OCO4,31
6,COc1cc2c(CC[N+](=O)[O-])cc3c4cc5c(cc4ncc3c2cc1OC)OCO5,300
7,COc1cc2c(CCN)cc3c4cc5c(cc4ncc3c2cc1OC)OCO5,50
8,COc1cc2c(C(=O)NCCN(C)C)cc3c4cc5c(cc4ncc3c2cc1OC)OCO5,5
9,COc1cc2c(CNCCN(C)C)cc3c4cc5c(cc4ncc3c2cc1OC)OCO5,25
10,COc1cc2c(CCCCN(C)C)cc3c4cc5c(cc4ncc3c2cc1OC)OCO5,400

# Test system: not listed separately
# Experiment: Cytotoxicity against MDR1 overexpressing human KBV1 cells after 4 days by MTT method
# Type: functional, cell-based
# Conditions: KB-V1, 96 h
row,Compound,IC50 [nM]
1,COc1cc2c(C(N)=O)cc3c4cc5c(cc4ncc3c2cc1OC)OCO5,> 10000
2,COc1cc2c(CCN(C)C)cc3c4cc5c(cc4ncc3c2cc1OC)OCO5,80
3,COc1cc2c(CCCN(C)C)cc3c4cc5c(cc4ncc3c2cc1OC)OCO5,500
4,COc1cc2c3cnc4cc5c(cc4c3c(=O)n(CCN(C)C)c2cc1OC)OCO5,4
5,CNC(=O)c1cc2c3cc4c(cc3ncc2c2cc(OC)c(OC)cc12)OCO4,100
6,COc1cc2c(CC[N+](=O)[O-])cc3c4cc5c(cc4ncc3c2cc1OC)OCO5,440
7,COc1cc2c(CCN)cc3c4cc5c(cc4ncc3c2cc1OC)OCO5,500
8,COc1cc2c(C(=O)NCCN(C)C)cc3c4cc5c(cc4ncc3c2cc1OC)OCO5,220
9,COc1cc2c(CNCCN(C)C)cc3c4cc5c(cc4ncc3c2cc1OC)OCO5,27
10,COc1cc2c(CCCCN(C)C)cc3c4cc5c(cc4ncc3c2cc1OC)OCO5,4000

# Test system: not listed separately
# Experiment: Cytotoxicity against BCRP overexpressing human KBH5.0 cells after 4 days by MTT method
# Type: functional, cell-based
# Conditions: KBH5.0 cell, 96 h
row,Compound,IC50 [nM]
1,COc1cc2c(C(N)=O)cc3c4cc5c(cc4ncc3c2cc1OC)OCO5,> 10000
2,COc1cc2c(CCN(C)C)cc3c4cc5c(cc4ncc3c2cc1OC)OCO5,70
3,COc1cc2c(CCCN(C)C)cc3c4cc5c(cc4ncc3c2cc1OC)OCO5,180
4,COc1cc2c3cnc4cc5c(cc4c3c(=O)n(CCN(C)C)c2cc1OC)OCO5,4
5,CNC(=O)c1cc2c3cc4c(cc3ncc2c2cc(OC)c(OC)cc12)OCO4,80
6,COc1cc2c(CC[N+](=O)[O-])cc3c4cc5c(cc4ncc3c2cc1OC)OCO5,490
7,COc1cc2c(CCN)cc3c4cc5c(cc4ncc3c2cc1OC)OCO5,200
8,COc1cc2c(C(=O)NCCN(C)C)cc3c4cc5c(cc4ncc3c2cc1OC)OCO5,60
9,COc1cc2c(CNCCN(C)C)cc3c4cc5c(cc4ncc3c2cc1OC)OCO5,38
10,COc1cc2c(CCCCN(C)C)cc3c4cc5c(cc4ncc3c2cc1OC)OCO5,950
